The source of these data is PubChem BioAssay (NCI).

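Following 48 hours of exposure in 96-well plates, responses at five concentrations were used to interpolate endpoints linearly. The concentration for full growth arrest is given as TGI.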

Among the test systems are CAKI-1 renal; HL-60(TB) leukemia; HOP-92 NSCLC; HT29 colon; RPMI-8226 leukemia; SK-MEL-2 melanoma; SK-OV-3 ovarian; SN12C renal; UACC-257 melanoma; UO-31 renal.
Common to all, as to assay: inhibition of tumour cell growth, NCI panel, 48 h

Consider `CCOC(=O)C(C)c1nc2cc(N3CCN(C)CC3)c(F)cc2[nH]c1=O` (stereo not given), for which the TGI with CAKI-1 renal, with HL-60(TB) leukemia, in the test on HOP-92 NSCLC, in the test with HT29 colon, in the test with RPMI-8226 leukemia and in the test with SK-MEL-2 melanoma was more than 100 µM in each case. Also, the TGI in the test with SK-OV-3 ovarian, in the test with SN12C renal, in the test on UACC-257 melanoma and in the test with UO-31 renal was more than 100 µM in each case.
Regarding `Clc1ncnc2c1ncn2CCCCCCCCCCCCn1cnc2c(Cl)ncnc21`, the TGI in the test on CAKI-1 renal worked out at 7.68 µM; in the test on HL-60(TB) leukemia, 19.1 µM; with HOP-92 NSCLC it was 19.4 µM; with HT29 colon, 21.5 µM; with RPMI-8226 leukemia, 25.4 µM; with SK-MEL-2 melanoma, 26.4 µM. Besides, the TGI in the test with SK-OV-3 ovarian stood at 33.3 µM; in the test on SN12C renal, 37.5 µM; with UACC-257 melanoma, 11.9 µM; in the test on UO-31 renal, 25.8 µM.
Turning to `O=C(OCc1ccccc1)N1c2cc([N+](=O)[O-])ccc2C(=O)N2CCC[C@H]2C1O` (stereo not given in full), the TGI in the test with CAKI-1 renal, in the test with HL-60(TB) leukemia, with HOP-92 NSCLC, in the test on HT29 colon, in the test on RPMI-8226 leukemia and in the test on SK-MEL-2 melanoma was more than 100 µM in each case. Besides, the TGI in the test on SK-OV-3 ovarian, with SN12C renal, in the test with UACC-257 melanoma and in the test on UO-31 renal was more than 100 µM each time.
As to `Cc1c(F)c(N)c2c(=O)cc(-c3ccc(NC(=O)C(N)CCCN=C(N)N)c(F)c3)oc2c1F` (stereo not given), the TGI is 3.32 µM with CAKI-1 renal; more than 100 µM with HL-60(TB) leukemia; more than 100 µM in the test with HOP-92 NSCLC; more than 100 µM with HT29 colon; more than 100 µM in the test with RPMI-8226 leukemia; 60 µM in the test on SK-MEL-2 melanoma. Further, the TGI in the test with SK-OV-3 ovarian is more than 68.2 µM; with SN12C renal it was 45.2 µM; in the test on UACC-257 melanoma, 7.41 µM; with UO-31 renal, more than 55.8 µM.
